Columns and labels:
C57B16 mice [1] = test: Novel object recognition (NOR) test; format: in vivo
Description: Before training the animals with objects, they are first allowed to acclimatize to the testing environment, a white Perspex box (30 cm by 20 cm) equipped with an overhead camera. After an acclimation session, the animals are ready for the training stage. This stage involves the introduction of two identical objects (Lego Duplo) to the environment before allowing the rodent to explore for a period of five minutes: Following the training period, the rodent is removed from the environment for a delay period which can range from 5 minutes to 24 hours, depending on the type of memory being tested. After the delay, the rodent is returned to the arena, where one of the original objects has been replaced by a new one, such as a glass container.
The amount of time that the rodents spends exploring each object can be calculated by hand or by using a computer program receiving input from the overhead camera. The literature describes a variety of methods for analyzing results. One technique involves dividing the time spent exploring the novel object by the total time spent exploring either object, yielding % novel exploration. An alternative technique is used to calculate the discrimination ratio, defined as the difference in exploration time for the objects divided by total exploration time. The method of analysis should be suited to the specific experimental setup. […]

Sigma 1 receptor = target: T1, Sigma 1 receptor (Homo sapiens, UniProt Q99720); test: Novascreen receptor affinity screen (competition with reference ligand), Sigma 1; format: binding; conditions: 1 μM Captodiamine competing with a reference ligand; read-out: percent target inhibition, Sigma 1 receptor
T1 construct: Novascreen (contract screen)
Description: The Structure (FIG. 9A), receptor affinity (FIG. 9B), pharmacokinetics (FIG. 9C) and growth factor modulation (FIG. 9D) of Captodiamine are provided. Analysis of receptor affinities was performed by Novascreen™ and those displacing >20% of the natural ligand are indicated by the filled boxes. Blood levels of Captodiamine were determined by GC mass spectroscopy. In separate samples taken from a cannulated jugular at increasing time intervals following a single intraperitoneal injection of tha drug (5 mg/kg). Growth factor analysis was performed using tissue homogenates and ELISA assays specific for each growth factor (Promega). Values were analysed using a Student t-test and those with a p value<0.05 were accepted as significant and are indicated with an asterisk.
The higher the target inhibition value, the greater the affinity Captodiamine has for this particular receptor as it displaces a greater proportion of the reference ligand. This assay is an automated high throughput assay performed on cell lines that express only one type of receptor and was carried out by Novascreen (www.novascreen.com). Receptor affinity is a good starting point for determining the mechanism of action for a particular compound.

C57B16 mice [2] = test: Pre-pulse inhibition of the startle response; format: in vivo; conditions: i.p. once daily for 7 days; FIG. 5
Description: An example of one way of testing for PPI: In the prepulse inhibition (PPI) procedure, the rodent is placed in a small chamber and exposed to a brief pulse of noise. The test is used to assess the subject's ability to “gate” or filter environmental information. In the acoustic (startle model) of sensorimotor gating, a weak acoustic stimulus (ie, the prepulse) decreases the reflexive flinching response (startle) produced by a second, more intense, stimulus (the pulse).
The main three parts of the procedure are prepulse, startle stimulus, and startle reflex. Different prepulse-to-pulse intervals, or lead intervals, are used: 30, 60, 120, 240 and 480 ms. Lead interval counts from the start of prepulse to the start of the pulse. With the interval exceeding 500 ms, prepulse facilitation, such as increased response, is most likely to follow. Burst of white noise is usually used as acoustic startle stimulus. Typical durations are 20 ms for prepulse and 40 ms for pulse. […] Startle response is measured in rodents using the so-called automated “startle chambers” or “stabilimeter chambers”, with detectors recording whole-body reaction. In humans, the movements of oculomotor muscles (“eye-blink reflex” or “eye-blink response” assessed using electromyographic recording of orbicularis oculi muscle and by oculography) could be used as a measure. […]

[3] = test system: patients with depressive states; conditions: Azoulay, Le Bezu and Leyritz 1956; cited from earlier work

T1 sequence (Q99720 whole entry, species assumed): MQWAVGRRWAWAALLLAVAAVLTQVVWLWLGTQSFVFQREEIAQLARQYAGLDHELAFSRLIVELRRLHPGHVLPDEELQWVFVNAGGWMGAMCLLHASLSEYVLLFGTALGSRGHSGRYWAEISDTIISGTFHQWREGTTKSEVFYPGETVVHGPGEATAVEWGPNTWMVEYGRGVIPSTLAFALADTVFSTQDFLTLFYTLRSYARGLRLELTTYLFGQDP

## CCCCSc1ccc(C(SCCN(C)C)c2ccccc2)cc1 (centres unmarked) [Captodiamine, 2-[(4-butylsulfanylphenyl)-phenyl-methyl]sulfanyl-N,N-dimethyl-ethanamin]
C57B16 mice [1]; 3 mg/kg dose, one-tailed t-test
  time investigating objects during the training phase, Novel Object Recognition Task: significantly longer investigating objects
C57B16 mice [1]; FIG. 8 right hand panel
  time exploring objects in training (day 1) and testing (day 2) phases, NOR: more time exploring objects
Sigma 1 receptor
  inhibition at 1 µM: > 90%
C57B16 mice [2]
  pre-pulse inhibition of startle: no effect
[3]
  clinical usefulness in depressive states resistant to largactil: useful in only one patient

— patent US8461389B2, “Psycho-pharmaceuticals” (University College Dublin, National University of Ireland, …, priority 2008, dated 2013)
